Series [1] in a line: Cytotoxicity against human MCF-10A cells assessed as cell viability incubated for 96 hrs by MTT assay. The class given is toxicity, cell-based. The arrangement: concentration or dose not given beside the values. The note with it: read-out: Activity. (Tetrazolium assays rely on reduction of a dye to a coloured formazan, in cell work by metabolically active cells.)
Series [2] has as its system MIA PaCa-2. Nature of the series: Antiproliferative activity against human MIA PaCa-2 cells assessed as inhibition of cell growth incubated for 48 hrs by propidium iodide staining based fluorometer assay. The series is classed as functional. To be noted: MIA PaCa-2, 48 h.
Series [3] deals with MCF7. Nature of the series: Antiproliferative activity against human MCF7 cells assessed as inhibition of cell growth incubated for 48 hrs by propidium iodide staining based fluorometer assay. The class given is functional. The note with it: MCF7, 48 h.
Series [4] has as its system A549. The series is described as follows: Antiproliferative activity against human A549 cells assessed as inhibition of cell growth incubated for 48 hrs by propidium iodide staining based fluorometer assay. The class given is functional. The note with it: A549, 48 h.
The target in series [5] is Tubulin (Sus scrofa) (UniProt P02554+P02550). Nature of the series: Inhibition of pig brain tubulin polymerization at 25 uM measured after 15 mins by fluorescence based turbidimetry. The class given is tissue-based.
For series [6], the species on record is Sus scrofa. Nature of the series: Induction of pig brain microtubule stabilization at 25 uM measured after 15 mins by fluorescence based turbidimetry. The series is classed as tissue-based.
Series [7] concerns the target Epidermal growth factor receptor (Homo sapiens, UniProt P00533). The series is described as follows: Inhibition of recombinant 6His-tagged EGFR cytoplasmic domain (645 to 1186 residues) (unknown origin) autophosphorylation expressed in baculovirus infected Sf9 insect cells preincubated for 10 mins followed by ATP and MgCl2 addition measured after 60 mins by DELFIA/time-resolved fluorometric analysis.

Series [8] is described as follows: Inhibition of full length mouse GST-tagged BRAF V600E mutant preincubated for 60 mins followed by addition of N-terminal His-tagged full length human MEK1 incubated for 25 mins in presence of ATP by ELISA assay. In general terms: An ELISA detects its analyte on a solid surface through an enzyme-linked reagent.
Series [9] deals with L5178Y. The series is described as follows: Reversal of multidrug resistance in mouse L5178Y cells transfected with human MDR1 assessed as reversal of rhodamine 123 accumulation at 50 ug/ml incubated for 30 mins by flow cytometry. The series is classed as functional, cell-based. To be noted: dose 50.0 µg/ml.
Series [10] deals with L5178Y. Nature of the series: Reversal of multidrug resistance in mouse L5178Y cells transfected with human MDR1 assessed as reversal of rhodamine 123 accumulation at 5 ug/ml incubated for 30 mins by flow cytometry. The series is classed as functional, cell-based. To be noted: dose 5.0 µg/ml. (A flow cytometer gives signals particle by particle.)
The nature of series [11]: Toxicity in mouse L5178Y cells transfected with human MDR1 at 50 ug/ml after short period of incubation by tryptan blue assay. The note with it: dose 50 µg/ml. The series is classed as cell-based.
The test system of series [12] is PANC-1. Nature of the series: cells. To be noted: Homo sapiens, PANC-1, 48 h.
Description: Antiproliferative activity against human PANC-1 cells assessed as inhibition of cell growth incubated for 48 hrs by propidium iodide staining based fluorometer assay
Series [13] deals with HT-29. Nature of the series: cells. To be noted: Homo sapiens, HT-29, 48 h.
Description: Antiproliferative activity against human HT-29 cells assessed as inhibition of cell growth incubated for 48 hrs by propidium iodide staining based fluorometer assay
For series [14], the system named is NCI-H460. The series is described as follows: cells. The note with it: Homo sapiens, NCI-H460, 48 h.
Description: Antiproliferative activity against human NCI-H460 cells assessed as inhibition of cell growth incubated for 48 hrs by propidium iodide staining based fluorometer assay
Series [15] relates to PC-3. Nature of the series: cells. To be noted: Homo sapiens, PC-3, 48 h.
Description: Antiproliferative activity against human PC-3 cells assessed as inhibition of cell growth incubated for 48 hrs by propidium iodide staining based fluorometer assay

Molecules are shown by their SMILES. Active and inactive are the calls of the source. No cut-off for these calls is given here.

Chain of Tubulin (Sus scrofa) (P02550 whole entry, looked up): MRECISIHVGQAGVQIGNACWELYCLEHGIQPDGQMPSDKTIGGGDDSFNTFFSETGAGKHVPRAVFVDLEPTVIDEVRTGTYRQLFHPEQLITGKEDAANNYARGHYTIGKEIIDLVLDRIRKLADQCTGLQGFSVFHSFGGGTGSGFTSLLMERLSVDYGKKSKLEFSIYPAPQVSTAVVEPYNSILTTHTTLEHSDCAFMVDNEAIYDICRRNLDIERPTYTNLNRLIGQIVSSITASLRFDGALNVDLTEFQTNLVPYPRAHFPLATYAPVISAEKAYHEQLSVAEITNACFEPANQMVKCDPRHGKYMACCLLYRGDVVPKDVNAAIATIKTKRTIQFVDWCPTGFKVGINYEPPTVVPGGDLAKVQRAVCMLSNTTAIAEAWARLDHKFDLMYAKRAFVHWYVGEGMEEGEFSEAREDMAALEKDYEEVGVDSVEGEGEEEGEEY
Chain of Tubulin (Sus scrofa) (P02554 whole entry, looked up): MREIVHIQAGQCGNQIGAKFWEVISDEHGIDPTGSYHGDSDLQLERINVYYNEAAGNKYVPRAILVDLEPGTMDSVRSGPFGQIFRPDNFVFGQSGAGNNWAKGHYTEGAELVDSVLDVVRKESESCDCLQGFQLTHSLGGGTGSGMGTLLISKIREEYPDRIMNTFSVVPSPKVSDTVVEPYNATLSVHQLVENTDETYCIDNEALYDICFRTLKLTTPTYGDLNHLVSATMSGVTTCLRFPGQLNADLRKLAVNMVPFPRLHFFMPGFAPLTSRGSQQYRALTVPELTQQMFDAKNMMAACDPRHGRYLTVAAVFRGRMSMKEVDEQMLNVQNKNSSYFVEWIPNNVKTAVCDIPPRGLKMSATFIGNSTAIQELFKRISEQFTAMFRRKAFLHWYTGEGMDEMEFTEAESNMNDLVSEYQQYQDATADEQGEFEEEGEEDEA
Chain of Epidermal growth factor receptor (P00533 whole entry, the tested form may be a part): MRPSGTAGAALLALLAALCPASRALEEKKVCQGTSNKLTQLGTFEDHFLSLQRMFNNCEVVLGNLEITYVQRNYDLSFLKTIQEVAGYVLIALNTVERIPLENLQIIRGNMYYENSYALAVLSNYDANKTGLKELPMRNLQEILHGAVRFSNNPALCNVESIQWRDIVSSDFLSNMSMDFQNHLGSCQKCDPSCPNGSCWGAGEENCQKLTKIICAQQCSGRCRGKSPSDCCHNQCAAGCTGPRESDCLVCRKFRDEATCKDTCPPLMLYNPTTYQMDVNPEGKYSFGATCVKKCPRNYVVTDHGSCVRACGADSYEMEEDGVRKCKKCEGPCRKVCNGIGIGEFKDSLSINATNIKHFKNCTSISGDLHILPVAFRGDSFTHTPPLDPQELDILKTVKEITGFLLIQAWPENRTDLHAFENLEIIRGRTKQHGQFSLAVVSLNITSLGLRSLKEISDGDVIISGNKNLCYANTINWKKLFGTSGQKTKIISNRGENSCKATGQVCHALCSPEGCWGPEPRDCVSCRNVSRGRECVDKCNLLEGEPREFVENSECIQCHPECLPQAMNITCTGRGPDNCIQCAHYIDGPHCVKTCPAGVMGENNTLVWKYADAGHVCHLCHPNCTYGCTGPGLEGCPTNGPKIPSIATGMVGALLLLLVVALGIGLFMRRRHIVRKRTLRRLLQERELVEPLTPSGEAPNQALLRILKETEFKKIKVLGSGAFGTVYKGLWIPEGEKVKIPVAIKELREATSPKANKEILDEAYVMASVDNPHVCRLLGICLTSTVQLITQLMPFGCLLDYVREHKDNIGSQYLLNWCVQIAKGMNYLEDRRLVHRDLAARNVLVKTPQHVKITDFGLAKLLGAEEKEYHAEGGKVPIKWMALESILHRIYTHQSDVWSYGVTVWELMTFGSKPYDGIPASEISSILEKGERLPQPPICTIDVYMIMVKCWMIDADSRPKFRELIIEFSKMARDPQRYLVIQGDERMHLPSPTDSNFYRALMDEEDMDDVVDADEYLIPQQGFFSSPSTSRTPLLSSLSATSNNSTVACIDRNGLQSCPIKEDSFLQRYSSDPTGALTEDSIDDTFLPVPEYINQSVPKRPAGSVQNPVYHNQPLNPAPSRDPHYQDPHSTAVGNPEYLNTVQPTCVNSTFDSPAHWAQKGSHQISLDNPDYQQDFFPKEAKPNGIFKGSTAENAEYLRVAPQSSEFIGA

As to `COc1cc(/C=C2\CCc3ccc([N+](=O)[O-])cc3\C2=N\O)c(Br)c(OC)c1OC`, the viability at 96 h in [1] came to 96%. Further, the IC50 in [2] amounted to 20 nM; in series [3], 90 nM; in [4], 20 nM; in [7] it was 1900 nM; in series [8], 1000 nM; in [12] it was 20 nM. The IC50 in series [13] is 30 nM; in series [14], 40 nM; in series [15] it was 20 nM. Besides, the inhibition result in [5] was “Active”. The outcome in [6] and in series [10] was inactive. For the same molecule, in [9], the result was Active. In addition, the Activity entry in [11] is “Non-Toxic”.

Turning to `COc1cc2c(cc1OC)C(=N/O)/C(=C/c1cc(OC)c(OC)c(OC)c1Br)CC2`, in series [1], the viability at 96 h turned out to be 92%. The IC50 in [2] was determined as 2900 nM; in [3], 2200 nM; in series [4], 1900 nM; in series [7], 8400 nM; in series [8], 6300 nM; in series [12], 2100 nM. For the same molecule, the IC50 in series [13] worked out at 2200 nM; in series [14] it was 2600 nM; in series [15], 2200 nM. Moreover, the inhibition entry in series [5] was “Active”. For the same molecule, the result in [6] and in [10] was inactive. The outcome in series [9] was Active. The Activity result in [11] is “Non-Toxic”.

Turning to `COc1ccc(OC)c2c1CCC(=C\c1cc(OC)c(OC)c(OC)c1Br)/C2=N\O`, the viability at 96 h in series [1] came to 89%. The IC50 was 600 nM in [2]; 500 nM in [3]; 400 nM in [4]; 4200 nM in [7]; 1800 nM in series [8]; 700 nM in [12]. Moreover, the IC50 in series [13] was 600 nM; in series [14], 600 nM; in [15], 700 nM. For the same molecule, in [5], the inhibition entry is “Active”. For the same molecule, the result in series [6] and in series [10] was inactive. In addition, the outcome in [9] was Active. Moreover, the Activity entry in series [11] is on record as “Non-Toxic”.

A word on the IC50: it is the concentration that inhibits the measured activity by half.

The values are drawn from ChEMBL document CHEMBL5257024, “Synthesis of α,β-Unsaturated Carbonyl-Based Compounds, Oxime and Oxime Ether Analogs as Potential Anticancer Agents for Overcoming Cancer Multidrug Resistance by Modulation of Efflux Pumps in Tumor Cells” (J Med Chem, 2016).
